Patent EP4667466A1, “PROTAC DEGRADERS OF MLLT1 AND/OR MLLT3” (priority 2024, dated 2025)

Assays:
MV4-11 cells = experiment: MV4-11 cellular proliferation assay, Assay Format A (CellTiter-Glo, 120 hours); assay type: cell-based; conditions: Homo sapiens, Assay method A, read-out: MV4-11 antiproliferative IC50
Method: An MV4-11 proliferation assay was used to test the ability of compounds to reduce cell viability.
After 120 hours of treatment, cells were incubated for 10 min at RT with the CellTiter-Glo (CTG) reagent (G7571, Promega). Measurement of the luminescence signal was performed on a microplate reader (Ensight, PerkinElmer). CTG reagent measures the amount of ATP, which is directly proportional to the number of cells, to determine the number of viable cells in culture.
The data were analysed as follows: Data normalization, N(x) = (x−〈cr〉)/(〈sr〉−〈cr〉) × 100 [formula] where x is the measured raw signal value of a well, (cr) is the median of the measured signal values for the Central Reference (DMSO) wells on a plate, (sr) is the median of the measured signal values for the Scale Reference (reference compound) wells on a plate. Curve fitting, S0 + (Sinf −S0)/(1 + (((AC50)/(10^c)))^n) [formula] where the experimental set-up assumes the Hill parameters in certain ranges: S0 ~ Central Reference (CR) from normalization (= Bottom), Sinf ~ Scale Reference (SR) from normalization (= Top), nHill ~ 1, AC50 ~ within the measured concentration range.

MLLT1 = molecular target: T1, MLLT1 (Homo sapiens, UniProt Q03111); experiment: MLLT1 degradation assay (JESS automated chemiluminescent detection) in MV4-11 cells; assay type: cell-based; conditions: 24h, with respect to DMSO control
T1 construct: endogenous in cells; host or cells: MV4-11 (ATCC CRL-9591)
T1 sequence (Q03111 1-559): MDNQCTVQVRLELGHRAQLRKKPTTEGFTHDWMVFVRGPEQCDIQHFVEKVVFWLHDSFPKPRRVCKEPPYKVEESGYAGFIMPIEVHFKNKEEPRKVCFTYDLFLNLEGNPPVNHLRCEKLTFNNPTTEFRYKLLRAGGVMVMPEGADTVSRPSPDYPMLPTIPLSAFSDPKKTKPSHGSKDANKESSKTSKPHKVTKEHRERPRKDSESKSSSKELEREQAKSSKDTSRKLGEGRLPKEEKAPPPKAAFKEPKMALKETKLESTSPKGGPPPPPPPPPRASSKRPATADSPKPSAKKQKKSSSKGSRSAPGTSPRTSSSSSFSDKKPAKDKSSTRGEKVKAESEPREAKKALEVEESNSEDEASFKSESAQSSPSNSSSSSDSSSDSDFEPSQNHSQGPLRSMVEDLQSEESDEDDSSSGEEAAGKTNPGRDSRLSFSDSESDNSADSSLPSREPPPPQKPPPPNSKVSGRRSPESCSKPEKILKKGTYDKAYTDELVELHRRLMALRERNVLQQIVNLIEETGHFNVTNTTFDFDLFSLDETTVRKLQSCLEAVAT
In short: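 MV4-11 cells were treated with 1000, 100 or 10 nM compound (0.1% DMSO) for 24 h at 37 °C. Lysates (4 µg protein) were probed for MLLT1 and GAPDH by JESS capillary chemiluminescence. Degradation was calculated from band peak areas versus DMSO control and binned into categories A–D.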

Row | IC50 (MV4-11 cells) [nM] | inhibition at 0.01 µM (MLLT1) [%] | inhibition at 0.1 µM (MLLT1) [%] | inhibition at 1 µM (MLLT1) [%] | SMILES
1 | 6 | ≥ 75 | ≥ 75 | ≥ 75 | Cc1nn(CCCCCC#Cc2cccc3c2CN(C2CCC(=O)NC2=O)C3=O)c2cc(C(=O)Nc3cc4[nH]c([C@H]5CCCN5C)cc4cn3)ccc12 (stereo partly drawn) [Example 30, 1-(7-(2-(2,6-dioxopiperidin-3-yl)-1-oxoisoindolin-4-yl)hept-6-yn-1-yl)-3-methyl-N-(2-((R)-1-methylpyrrolidin-2-yl)-1H-pyrrolo [3,2-c]pyridin-6-yl)-1H-indazole-6-carboxamide]
2 | 7 | ≥ 75 | ≥ 75 | 50 to 75 | Cc1nn(CCCCC#Cc2cccc3c2CN(C2CCC(=O)NC2=O)C3=O)c2cc(C(=O)Nc3cc4[nH]c([C@H]5CCCN5C)cc4cn3)ccc12 (stereo partly drawn) [Example 46, 1-(6-(2-(2,6-dioxopiperidin-3-yl)-1-oxoisoindolin-4-yl)hex-5-yn-1-yl)-3-methyl-N-(2-((R)-1-methylpyrrolidin-2-yl)-1H-pyrrolo[3.2-c]pyridin-6-yl)-1H-indazole-6-carboxamide]

Second part, the compound before the results:

Row | SMILES | IC50 (MV4-11 cells) [nM] | inhibition at 0.01 µM (MLLT1) [%] | inhibition at 0.1 µM (MLLT1) [%] | inhibition at 1 µM (MLLT1) [%]
3 | Cc1nn(CCCC#Cc2cccc3c2CN(C2CCC(=O)NC2=O)C3=O)c2cc(C(=O)Nc3cc4[nH]c([C@H]5CCCN5C)cc4cn3)ccc12 (stereo partly drawn) [Example 32, 1-(5-(2-(2,6-dioxopiperidin-3-yl)-1-oxoisoindolin-4-yl)pent-4-yn-1-yl)-3-methyl-N-(2-((R)-1-methylpyrrolidin-2-yl)-1H-pyrrolo[3,2-c]pyridin-6-yl)-1H-indazole-6-carboxamide] | 15 | 50 to 75 | ≥ 75 | 50 to 75
4 | [2H]C([2H])([2H])N1CCC[C@@H]1c1cc2cnc(NC(=O)c3ccc4c(C)nn(CCCCCCCC#Cc5cccc6c5CN(C5CCC(=O)NC5=O)C6=O)c4c3)cc2[nH]1 (stereo partly drawn) [Example 44, 1-(9-(2-(2,6-dioxopiperidin-3-yl)-1-oxoisoindolin-4-yl)non-8-yn-1-yl)-3-methyl-N-(2-((R)-1-(methyl-d3)pyrrolidin-2-yl)-1H-pyrrolo[3,2-c]pyridin-6-yl)-1H-indazole-6-carboxamide] | 5 | 50 to 75 | ≥ 75 | ≥ 75
5 | Cc1nn(CCCCCCC#Cc2cccc3c2CN(C2CCC(=O)NC2=O)C3=O)c2cc(C(=O)Nc3cc4[nH]c([C@H]5CCCN5C)cc4cn3)ccc12 (stereo partly drawn) [Example 45, 1-(8-(2-(2,6-dioxopiperidin-3-yl)-1-oxoisoindolin-4-yl)oct-7-yn-1-yl)-3-methyl-N-(2-((R)-1-methylpyrrolidin-2-yl)-1H-pyrrolo[3,2-c]pyridin-6-yl)-1H-indazole-6-carboxamide] | 10 | ≥ 75 | ≥ 75 | ≥ 75
